In patent publication US11141452B2, “Bifunctional compounds for relief of pain comprising an opioid receptor agonist moiety and a NK1 receptor antagonist moiety and methods for treating pain” (THE ARIZONA BOARD OF REGENTS ON BEHALF OF THE UNIVERSITY OF …, priority 2014, dated 2021):
Values joined by “and” are separate entries in the source; they are usually repeats but may differ in a detail not shown here. Equal entries are not always repeated.

What was measured:
MOR [1] = test: Radioligand binding assay at μ opioid receptor
Protocol: (§1) Binding affinities of these ligands were measured on radioligand binding assays. […] ([43]).

hNK1 = target: T1, hNK1 (Homo sapiens, UniProt P25103); test: hNK1/CHO cell membrane radioligand binding assay ([3H]SP)
T1 construct: expressed in transfected cells; host or cells: CHO

rNK1 = rNK1 (Rattus norvegicus, UniProt P14600); test: Radioligand binding assay at rat NK1 receptor; conditions: Ki^rNK1 (nM)
Protocol: as §1

MOR [2] = test: Guinea pig isolated ileum (GPI) functional assay; format: cell-based; conditions: agonist activity, electrically stimulated tissue; read-out: GPI (MOR) IC50
DOR = target: T2, DOR (Mus musculus, UniProt P32300); test: Mouse isolated vas deferens (MVD) functional assay; format: cell-based
T2 construct: Male ICR mice under CO2 anesthesia were sacrificed by cervical dislocation and the vasa differentia removed; from tissue; host or cells: mouse vas deferens (ICR mice)

NK1R = target: T3, NK1R (Cavia porcellus, UniProt P30547); test: GPI/LMMP functional assay at NK1R (agonist and antagonist testing); format: cell-based, guinea pig
T3 construct: The longitudinal muscle with myenteric plexus (LMMP) was carefully separated from the circular muscle; from tissue; host or cells: guinea pig ileum longitudinal muscle with myenteric plexus

[3] = test system: mice (acute thermal pain, tail flick); test: Tail flick latency, 52° C. water bath, after intrathecal injection; format: in vivo, mouse
Protocol: Tail flick latencies were re-assessed at up to 8 time points after administration. […] Mice with baseline TFLs<3 s or >9 s were excluded from the study.
For both studies, maximal percent efficacy was calculated and expressed as: % Antinociception=100*(test latency after drug treatment−baseline latency)/(cutoff−baseline latency) Statistics: Between group data were analyzed by non-parametric two-way analysis of variance (ANOVA; post hoc. Neuman-Kuels) in FlashCalc (Dr. Michael H. Ossipov, University of Arizona, Tucson, Ariz., USA). Within group data were analyzed by non-parametric one-way analysis of variance (ANOVA; post hoc: Bonferroni) in FlashCalc (Dr. Michael H. Ossipov, University of Arizona, Tucson, Ariz., USA). Differences were considered to be significant if P≤0.05.

in vitro = conditions: rat, plasma

T2 sequence (P32300 whole entry): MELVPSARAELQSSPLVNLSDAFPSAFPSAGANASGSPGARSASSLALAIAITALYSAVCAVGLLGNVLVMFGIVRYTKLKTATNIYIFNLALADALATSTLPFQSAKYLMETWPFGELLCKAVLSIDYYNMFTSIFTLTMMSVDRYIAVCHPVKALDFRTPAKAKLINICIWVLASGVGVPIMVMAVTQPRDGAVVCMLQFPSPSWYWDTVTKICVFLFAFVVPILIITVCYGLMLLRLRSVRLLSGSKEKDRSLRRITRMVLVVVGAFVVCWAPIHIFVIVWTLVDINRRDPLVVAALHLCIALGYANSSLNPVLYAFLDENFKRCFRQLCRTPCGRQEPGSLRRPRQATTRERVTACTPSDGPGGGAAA
T3 sequence (P30547 whole entry): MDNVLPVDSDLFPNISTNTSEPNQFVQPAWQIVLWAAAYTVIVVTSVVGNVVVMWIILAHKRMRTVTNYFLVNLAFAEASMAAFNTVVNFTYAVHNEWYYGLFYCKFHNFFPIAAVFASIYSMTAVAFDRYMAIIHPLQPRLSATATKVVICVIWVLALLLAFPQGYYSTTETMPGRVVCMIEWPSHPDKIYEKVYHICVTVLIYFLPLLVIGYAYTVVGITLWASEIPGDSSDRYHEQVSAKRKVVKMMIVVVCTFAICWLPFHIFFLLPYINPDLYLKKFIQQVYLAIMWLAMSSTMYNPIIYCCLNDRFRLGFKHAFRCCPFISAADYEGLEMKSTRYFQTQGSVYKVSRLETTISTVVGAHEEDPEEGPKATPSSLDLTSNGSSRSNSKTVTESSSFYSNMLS
T1 sequence (P25103 whole entry): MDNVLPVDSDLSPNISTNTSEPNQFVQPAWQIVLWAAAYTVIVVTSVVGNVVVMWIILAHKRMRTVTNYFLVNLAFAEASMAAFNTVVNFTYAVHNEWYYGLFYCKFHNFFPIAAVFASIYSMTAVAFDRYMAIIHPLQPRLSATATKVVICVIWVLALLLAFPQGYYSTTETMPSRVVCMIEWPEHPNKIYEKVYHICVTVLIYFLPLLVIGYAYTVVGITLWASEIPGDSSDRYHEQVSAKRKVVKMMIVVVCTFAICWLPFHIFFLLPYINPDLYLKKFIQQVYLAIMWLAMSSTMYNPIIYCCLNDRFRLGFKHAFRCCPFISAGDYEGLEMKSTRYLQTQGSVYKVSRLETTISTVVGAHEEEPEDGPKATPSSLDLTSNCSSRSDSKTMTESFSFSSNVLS
Chain of rNK1 (P14600 whole entry): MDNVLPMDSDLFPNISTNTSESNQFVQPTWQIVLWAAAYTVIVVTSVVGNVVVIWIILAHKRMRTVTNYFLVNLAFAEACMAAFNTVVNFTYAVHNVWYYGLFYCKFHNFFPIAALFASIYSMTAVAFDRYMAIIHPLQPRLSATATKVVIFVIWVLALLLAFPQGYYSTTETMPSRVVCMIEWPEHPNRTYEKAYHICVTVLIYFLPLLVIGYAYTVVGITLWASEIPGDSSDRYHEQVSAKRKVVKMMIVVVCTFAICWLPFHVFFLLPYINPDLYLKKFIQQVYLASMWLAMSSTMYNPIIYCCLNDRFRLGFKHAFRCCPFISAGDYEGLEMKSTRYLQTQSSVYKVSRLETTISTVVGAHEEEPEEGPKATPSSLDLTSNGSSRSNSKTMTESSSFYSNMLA

In the case of `Cc1cc(O)cc(C)c1C[C@H](N)C(=O)N[C@H](C)C(=O)NCC(=O)N[C@@H](Cc1ccc(F)cc1)C(=O)N1CCC[C@H]1C(=O)N[C@@H](CC(C)C)C(=O)N[C@@H](Cc1c[nH]c2ccccc12)C(=O)NCc1cc(C(F)(F)F)cc(C(F)(F)F)c1` [AKG127, H-Dmt-D-Ala-Gly-Phe(4-F)-Pro-Leu-Trp-NH-Bn(3′,5′-(CF3)2)], the Ki (MOR [1]) is reported as 1 nM, the “Log[IC50±] (μ)” value (MOR [1]; log IC50 ± error) is reported as −8.72 ± 0.08 and the “Ki^μ/Ki^δ” value (MOR [1]; ratio of binding affinities MOR/DOR) is reported as 1/1. The Ki (hNK1; Ki^hNK1 (nM), hNK1/CHO membranes, [3H]SP) was 1 nM, the “Ki^hNK1/Ki^rNK1” value (hNK1; ratio human/rat NK1) was 1/33 and the Ki (rNK1) was 29.4 ± 1.5 nM. For the same molecule, the IC50 (MOR [2]) was 42 nM and 41.6 nM, the “higher agonist activity at DOR compared to MOR (functional assays)” value (DOR) was 21 times and the IC50 (DOR; MVD (DOR) IC50 (nM), agonist activity, electrically stimulated tissue) was 1.9 nM and 1.96 nM. The “GPI/LMMP (NK1R) Agonist” value (NK1R; agonist activity at the concentration in the cell) was “None at 30 nM”, the Kb (NK1R; antagonist activity, read-out: GPI/LMMP (NK1R) Ke (nM) ± S.E.M.) was 5.3 nM and the “maximal level of antinociception (% antinociception)” value ([3]; 0.1 μg i.t.) was “approximately 70%”. For the same molecule, the “tail flick latencies (TFLs)” value ([3]; 0.1 μg in 5 μl, i.t., 60 min after injection) was “significantly higher than vehicle-treated mice and baseline values” and the half-life (in vitro) was > 24 h.
